# Measured values reported in patent publication US20070128217A1 (priority 2003, published 2007).
# How the values were obtained:
# [1] = tested on: rabbit serum obtained by immunizing a rabbit with the SARS-CoV strain Frankfurt 1; assay type: binding; parameters: Binding of a rabbit serum to linear peptides / Binding of a rabbit serum to looped peptides / Rabbit serum linear peptides / Rabbit serum looped peptides / Binding of a rabbit serum to linear peptides of protein N of SARS-CoV Urbani (Rabbit serum linear peptides) / Binding of a rabbit serum to looped/cyclic peptides of protein N of SARS-CoV Urbani (Rabbit serum looped peptides): unit not given here
# [2] = tested on: antibodies in sera from SARS patients (sera 1a, 1b, 2, 6, 37, 62, London, SARS-yellow, SARS-green); assay type: binding, human; parameters: Binding of serum 6 to linear peptides of protein X1 of SARS-CoV Urbani / Binding of serum 37 to linear peptides of protein X1 of SARS-CoV Urbani / Binding of serum 6 to looped/cyclic peptide (PEPSCAN-ELISA) / Binding of serum 37 to looped/cyclic peptide (PEPSCAN-ELISA) / Binding of serum 37 to looped/cyclic peptides of protein X1 of SARS-CoV Urbani / Binding of serum 6 to linear peptides of protein X2 / Binding of serum 37 to linear peptides of protein X2 / Binding of serum 37 to looped/cyclic peptides of protein X2 of SARS-CoV Urbani / Binding of serum 6 to linear peptides of protein M of SARS-CoV Urbani / Binding of serum 37 to linear peptides of protein M of SARS-CoV Urbani / Binding of serum 6 to looped/cyclic peptides of protein M of SARS-CoV Urbani / Binding of serum 37 to looped/cyclic peptides of protein M of SARS-CoV Urbani / Binding of serum 6 to linear peptides of protein X3 of SARS-CoV Urbani / Binding of serum 37 to linear peptides of protein X3 of SARS-CoV Urbani / Binding of serum 37 to looped/cyclic peptides of protein X3 of SARS-CoV Urbani / Binding of serum 6 to linear peptides of protein X4 of SARS-CoV Urbani / Binding of serum 37 to linear peptides of protein X4 of SARS-CoV Urbani / Binding of serum 37 to looped/cyclic peptides of protein X4 of SARS-CoV Urbani / Binding of serum 6 to linear peptides of protein X5 of SARS-CoV Urbani / Binding of serum 37 to linear peptides of protein X5 of SARS-CoV Urbani / Binding of serum 37 to looped/cyclic peptides of protein X5 of SARS-CoV Urbani / Binding of serum 6 to linear peptides of protein N of SARS-CoV Urbani / Binding of serum 37 to linear peptides of protein N of SARS-CoV Urbani / Binding of serum 6 to linear peptide (PEPSCAN-ELISA) / Binding of serum 1a to looped/cyclic peptides of protein N of SARS-CoV Urbani / Binding of serum 1b to looped/cyclic peptides of protein N of SARS-CoV Urbani / Binding of serum 2 to looped/cyclic peptides of protein N of SARS-CoV Urbani / Binding of serum 6 to looped/cyclic peptides of protein N of SARS-CoV Urbani / Binding of serum 37 to looped/cyclic peptides of protein N of SARS-CoV Urbani / Binding of serum 62 to looped/cyclic peptides of protein N of SARS-CoV Urbani / Binding of serum London to looped/cyclic peptides of protein N of SARS-CoV Urbani / Binding of serum SARS-green to looped/cyclic peptides of protein N of SARS-CoV Urbani: unit not given here
# [3] = tested on: control sera (pooled serum of ten healthy LUMC hospital workers; commercial negative donor pooled serum from the Dutch bloodbank); assay type: binding, human; parameters: Binding of Control serum LUMC to linear peptides / Binding of Control serum Blood-bank to linear peptides / Binding of Control serum LUMC to looped peptides / Binding of Control Serum Blood-Bank to Looped peptides / Binding of Control serum LUMC to linear peptides of the protein M of SARS-CoV Urbani / Binding of Control serum Blood-bank to linear peptides of the protein M of SARS-CoV Urbani / Binding of Control serum LUMC to looped peptides of the protein M of SARS-CoV Urbani / Binding of Control Serum Blood-Bank to Looped peptides of the protein M of SARS-CoV Urbani: unit not given here
# [4] = tested on: recombinant human anti-SARS-CoV antibody 03-018; assay type: binding; parameters: Binding of antibody 03-018 to linear peptides of the N protein of SARS-CoV Urbani / Binding of antibody 03-018 to looped/cyclic peptides of the N protein of SARS-CoV Urbani: unit not given here
Sequence,Binding of serum 1a to linear peptides of protein N of SARS-CoV Urbani [2],Binding of serum 1a to looped/cyclic peptides of protein N of SARS-CoV Urbani [2],Binding of serum 1b to linear peptides of protein N of SARS-CoV Urbani [2],Binding of serum 1b to looped/cyclic peptides of protein N of SARS-CoV Urbani [2],Binding of serum 2 to linear peptides of protein N of SARS-CoV Urbani [2],Binding of serum 2 to looped/cyclic peptides of protein N of SARS-CoV Urbani [2],Binding of serum 6 to linear peptides of protein N of SARS-CoV Urbani [2],Binding of serum 6 to looped/cyclic peptides of protein N of SARS-CoV Urbani [2],Binding of serum 37 to linear peptides of protein N of SARS-CoV Urbani [2],Binding of serum 37 to looped/cyclic peptides of protein N of SARS-CoV Urbani [2],Binding of serum 62 to linear peptides of protein N of SARS-CoV Urbani [2],Binding of serum 62 to looped/cyclic peptides of protein N of SARS-CoV Urbani [2],Binding of serum London to linear peptides of protein N of SARS-CoV Urbani [2],Binding of serum London to looped/cyclic peptides of protein N of SARS-CoV Urbani [2],Binding of serum SARS-green to linear peptides of protein N of SARS-CoV Urbani [2],Binding of serum SARS-green to looped/cyclic peptides of protein N of SARS-CoV Urbani [2],Binding of serum SARS-yellow to linear peptides of protein N of SARS-CoV Urbani [2],Binding of serum SARS-yellow to looped/cyclic peptides of protein N of SARS-CoV Urbani [2],Binding of antibody 03-018 to linear peptides of the N protein of SARS-CoV Urbani [4],Binding of antibody 03-018 to looped/cyclic peptides of the N protein of SARS-CoV Urbani [4],further results
GTWLTYHGAIKLDDK,0.2,0.2,0.1,0.1,0.2,0.2,0.1,0.1,0.7,0.4,0.7,0.3,0.5,0.3,0.4,0.1,0.7,0.5,0.1,0.2,Binding of a rabbit serum to linear peptides of protein N of SARS-CoV Urbani (Rabbit serum linear peptides) [1]: 0.1; Binding of a rabbit serum to looped/cyclic peptides of protein N of SARS-CoV Urbani (Rabbit serum looped peptides) [1]: 0.2; Control Serum Blood-Bank Looped peptides [3]: 0.4; Control serum Blood-bank linear peptides [3]: 0.6; Control serum LUMC linear peptides [3]: 0.6; Control serum LUMC looped peptides [3]: 0.4
GVPINTNSGPDDQIG,0.3,0.3,0.1,0.2,0.2,0.2,0.2,0.1,0.8,0.5,0.6,0.3,0.5,0.3,0.5,0.3,0.5,0.2,0.1,0.2,Binding of a rabbit serum to linear peptides of protein N of SARS-CoV Urbani (Rabbit serum linear peptides) [1]: 0.1; Binding of a rabbit serum to looped/cyclic peptides of protein N of SARS-CoV Urbani (Rabbit serum looped peptides) [1]: 0.2; Binding of Control Serum Blood-Bank to Looped peptides [3]: 0.4; Binding of Control serum Blood-bank to linear peptides [3]: 0.7; Binding of Control serum LUMC to linear peptides [3]: 0.7; Binding of Control serum LUMC to looped peptides [3]: 0.4
GYYRRATRRVRGGDG,0.3,0.3,0.1,0.1,0.1,0.4,0.2,0.2,0.3,0.5,0.4,0.4,0.4,0.3,0.2,0.2,0.6,0.2,0.1,0.2,Recognition of the peptide by the rabbit serum [1]: recognized; Binding of Control Serum Blood-Bank to Looped peptides [3]: 0.6; Binding of Control serum Blood-bank to linear peptides [3]: 0.6; Binding of Control serum LUMC to linear peptides [3]: 0.6; Binding of Control serum LUMC to looped peptides [3]: 0.5
HIGTRNPNNNAATVL,0.3,0.6,0.2,0.5,0.4,0.9,0.2,0.6,0.9,1.2,0.8,1.3,0.5,0.7,0.5,0.9,0.7,0.8,0.1,0.3,Binding of a rabbit serum to linear peptides of protein N of SARS-CoV Urbani (Rabbit serum linear peptides) [1]: 0.1; Binding of a rabbit serum to looped/cyclic peptides of protein N of SARS-CoV Urbani (Rabbit serum looped peptides) [1]: 0.7; Binding of Control Serum Blood-Bank to Looped peptides [3]: 1.2; Binding of Control serum Blood-bank to linear peptides [3]: 0.9; Binding of Control serum LUMC to linear peptides [3]: 0.9; Binding of Control serum LUMC to looped peptides [3]: 1.2
